Source: US20060281719A1, “Oestrogen-17-sulphamates as inhibitors of steroid sulphatase” (priority 2000, published 2006)
Where “and” joins values, the source holds several entries; their conditions need not be identical. Identical values can stand only once.

How the values were obtained:
Plate assay % inhibition = assay type: cell-based; details: -ve % means stimulation
[1] = target: T1, oestrone sulphatase (E1-STS) (Homo sapiens, UniProt P08842); test: Inhibition of steroid sulphatase activity in placental microsomes; assay type: biochemical; design: from tissue; host or cells: human term placenta (microsomal preparation)
T1 sequence (P08842 22-583): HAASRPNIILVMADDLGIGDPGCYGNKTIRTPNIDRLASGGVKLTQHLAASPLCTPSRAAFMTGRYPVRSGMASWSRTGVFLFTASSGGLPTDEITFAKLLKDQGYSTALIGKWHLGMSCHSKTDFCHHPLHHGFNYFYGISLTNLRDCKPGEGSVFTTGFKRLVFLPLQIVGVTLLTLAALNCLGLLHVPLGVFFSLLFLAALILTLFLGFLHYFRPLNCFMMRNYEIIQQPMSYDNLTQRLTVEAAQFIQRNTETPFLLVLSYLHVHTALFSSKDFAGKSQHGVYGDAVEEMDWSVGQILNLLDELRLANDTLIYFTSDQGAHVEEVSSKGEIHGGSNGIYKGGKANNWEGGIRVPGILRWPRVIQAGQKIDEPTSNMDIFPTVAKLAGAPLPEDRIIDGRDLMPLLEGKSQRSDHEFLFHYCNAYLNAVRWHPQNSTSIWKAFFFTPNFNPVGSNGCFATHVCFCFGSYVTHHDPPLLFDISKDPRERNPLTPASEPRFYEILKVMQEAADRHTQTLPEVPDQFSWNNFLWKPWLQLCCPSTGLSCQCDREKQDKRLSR
Protocol: Inhibition of Steroid Sulphatase Activity in Placental Microsomes
Sulphatase-positive human placenta from normal term pregnancies are thoroughly minced with scissors and washed once with cold phosphate buffer (pH 7.4, 50 mM) then re-suspended in cold phosphate buffer (5 ml/g tissue). Homogenisation is accomplished with an Ultra-Turrax homogeniser, using three 10 second bursts separated by 2 minute cooling periods in ice. Nuclei and cell debris are removed by centrifuging (4° C.) at 2000 g for 30 minutes and portions (2 ml) of the supernatant are stored at 20° C.
Incubations (1 ml) are carried out using a protein concentration of 100 mg/ml, substrate concentration of 20 mM [6,7-3H]oestrone-3-sulphate (specific activity 60 Ci/mmol from New England Nuclear, Boston, Mass., U.S.A.) and an incubation time of 20 minutes at 37° C. If necessary eight concentrations of compounds are employed: 0 (i.e. control); 0.05 mM; 0.1 mM; 0.2 mM; 0.4 mM; 0.6 mM; 0.8 mM; 1.0 mM. After incubation each sample is cooled and the medium (1 ml) was pipetted into separate tubes containing [14C]oestrone (7×10^3 dpm) (specific activity 97 Ci/mmol from Amersham International Radiochemical Centre, Amersham, U.K.). The mixture is shaken thoroughly for 30 seconds with toluene (5 ml). […] A portion (2 ml) of the organic phase was removed, evaporated and the 3H and 14C content of the residue determined by scintillation spectrometry. The mass of oestrone-3-sulphate hydrolysed is calculated from the 3H counts obtained (corrected for the volumes of the medium and organic phase used, and for recovery of [14C]oestrone added) and the specific activity of the substrate.

[2] = target: T1, oestrone sulphatase (E1-STS); test: Inhibition of steroid sulphatase (E1-STS) activity in intact MCF-7 breast cancer cells; assay type: cell-based

SMILES | Plate assay % inhibition (Plate assay % inhibition; 1 μM) [%] | Plate assay % inhibition (Plate assay % inhibition; 0.1 μM) [%] | Plate assay % inhibition (Plate assay % inhibition; 10 μM) [%] | % Inhibition of E1-STS activity in placental microsomes ([1]; 10 μM) | % Inhibition of E1-STS activity in placental microsomes ([1]; 25 µM) [%] | % Inhibition of E1-STS activity in placental microsomes ([1]; 50 µM) [%] | % Inhibition of E1-STS activity in placental microsomes ([1]; 100 µM) [%] | % Inhibition of E1-STS activity in MCF-7 cells ([2]; 0.1 μM) | % Inhibition of E1-STS activity in MCF-7 cells ([2]; 1 μM) [%] | % Inhibition of E1-STS activity in MCF-7 cells ([2]; 10 μM) [%]
CCCCCN(CCCCC)S(=O)(=O)O[C@@H]1CC[C@H]2[C@@H]3CCc4cc(O)ccc4[C@H]3CC[C@]12C [BLE00082, 3-Hydroxyestra-1,3,5(10)-trien-17α-O—(N,N-dipentyl)sulfamate] | 24 | – | – | – | – | – | – | – | – | –
CCCCCN(CCCCC)S(=O)(=O)O[C@@H]1CC[C@H]2[C@@H]3CCc4cc(OS(N)(=O)=O)ccc4[C@H]3CC[C@]12C [BLE00083B, 3-O-Sulfamoyl-estra-1,3,5(10)-trien-17α-O—(N,N-dipentyl)sulfamate] | – | 8 | 24 | – | – | – | – | – | – | –
C[C@]12CC[C@@H]3c4ccc(OS(N)(=O)=O)cc4CC[C@H]3[C@@H]1CC[C@@H]2O [BLE00084] | – | 4 | 23 | – | – | – | – | – | – | –
NS(=O)(=O)Oc1ccc(C(=O)c2ccc(O)cc2)cc1 [Compound 5, 4′-Hydroxybenzophenone-4-O-sulphamate] | – | – | – | 62.1 ± 1.4% | 82.0 ± 0.4 | 88.1 ± 0.3 | 92.8 ± 0.2 | 34.8 ± 1.7% | 83.8 ± 0.5 | 96.7 ± 1.0
NS(=O)(=O)Oc1ccc(C(=O)c2ccccc2)cc1 [Compound 6, Benzophenone-4-O-sulphamate] | – | – | – | 76.73 ± 2.47% | – | 88.04 ± 0.82 | 92.28 ± 0.41 | <10% | 33.04 ± 10.68 | 87.89 ± 2.02
NS(=O)(=O)Oc1ccc(C=CC(=O)c2ccccc2)cc1 [Compound 7, Chalcone-4-O-sulphamate] | – | – | – | 47.41 ± 0.05% | – | 75.11 ± 1.37 | 82.77 ± 0.23 | <10% | 24.34 ± 11.89 | 83.81 ± 0.17
NS(=O)(=O)Oc1ccc(C(=O)C=Cc2ccccc2)cc1 [Compound 8, Chalcone-4′-O-sulphamate] | – | – | – | 71.27 ± 2.42% | – | 75.79 ± 2.06 | 80.51 ± 1.87 | <10% | 33.04 ± 10.68 | 87.89 ± 2.02
NS(=O)(=O)Oc1ccc2oc3ccccc3c2c1 [Compound 9, Dibenzofuran-2-O-sulphamate] | – | – | – | 28.8 ± 3.2% | 48.5 ± 0.5 | 62.0 ± 2.8 | 75.8 ± 1.2 | 21.3 ± 1.5% | 67.9 ± 1.9 | 97.1 ± 0.8
NS(=O)(=O)Oc1ccc2c(c1)C(=O)c1ccc(OS(N)(=O)=O)cc1C2=O [Compound 10, Anthraquinone-2,6-O,O-bis-sulphamate] | – | – | – | – | 95.7 ± 0.5 | 97.2 ± 0.3 | 97.7 ± 0.1 | 93% and 93.1 ± 2.1% | 98.6 ± 1.0 | 99.1 ± 0.1
NS(=O)(=O)Oc1ccc2c(c1)C(=O)c1ccc(O)cc1C2=O [Compound 11, 2-hydroxyanthraquinone-6-O-sulphamate] | – | – | – | 86% and 86.1 ± 0.5% | 91.2 ± 0.2 | 94.4 ± 0.5 | 95.6 ± 0.1 | 99.3 ± 0.6% | 94.5 ± 1.6 | 90.1 ± 0.8
NS(=O)(=O)Oc1ccc(S(=O)(=O)c2ccc(OS(N)(=O)=O)cc2)cc1 [Compound 14, Sulphonyldiphenyl-4,4′-O,O-bis-sulphamate] | – | – | – | 65.0 ± 1.8% | 85.5 ± 0.6 | 92.3 ± 0.3 | 95.4 ± 0.2 | <10% | 50.6 ± 3.3 | 87.4 ± 2.7
NS(=O)(=O)Oc1ccc(Sc2ccc(OS(N)(=O)=O)cc2)cc1 [Compound 15, Thiodiphenyl-4,4′O,O-bis-sulphamate] | – | – | – | 65.3 ± 0.9% | 79.4 ± 0.9 | 87.4 ± 0.9 | 91.9 ± 0.4 | 67.2 ± 1.1% | 96.6 ± 1.4 | 99.7 ± 0.1
NS(=O)(=O)Oc1ccc(Sc2ccc(O)cc2)cc1 [Compound 16, 4′-hydroxy-thiodiphenyl-4-O-sulphamate] | – | – | – | 33.1 ± 1.7% | 49.5 ± 0.1 | 64.7 ± 0.9 | 76.8 ± 0.4 | 26.6 ± 4.3% | 83.9 ± 1.2 | 97.7 ± 0.4
NS(=O)(=O)Oc1ccc(Cc2ccc(OS(N)(=O)=O)cc2)cc1 [Compound 18, 4,4′-Bis-sulphamoyloxydiphenylmethane] | – | – | – | 22.1 ± 0.6% | 29.4 ± 0.1 | 38.7 ± 4.9 | 53.1 ± 0.1 | 22.2 ± 0.1% | 50.01 ± 0.1 | 93.3 ± 0.1
NS(=O)(=O)Oc1ccc(Cc2ccc(O)cc2)cc1 [Compound 19, 4-sulphamoyloxy-4′ hydroxydiphenylmethane] | – | – | – | 11.7 ± 2.3% | 17.3 ± 2.7 | 22.8 ± 1.4 | 34.3 ± 1.0 | <10% | 39.3 ± 0.1 | 92.4 ± 0.1
NS(=O)(=O)Oc1ccc(C23CC4CC(C2)CC(c2ccc(OS(N)(=O)=O)cc2)(C4)C3)cc1 [Compound 20, (1,3-Adamantanediyl)diphenyl-4,4′-O,O-bis-sulphamate] | – | – | – | 31.4 ± 1.6% | 41.9 ± 2.3 | 62.5 ± 7.5 | 69.0 ± 4.8 | 16.1 ± 4.0% | 32.7 ± 2.3 | 90.1 ± 0.7
NS(=O)(=O)Oc1ccc(C23CC4CC(CC(c5ccc(O)cc5)(C4)C2)C3)cc1 [Compound 21, 4′-hydroxy-(1,3-adamantanediyl)diphenyl-4-O-sulphamate] | – | – | – | <10% | 15.9 ± 0.9 | 32.5 ± 1.1 | 60.1 ± 3.4 | <10% | 16.3 ± 1.5 | 64.1 ± 1.1
Oc1ccc(C(O)(c2ccc(O)cc2)C2CCCCC2)cc1 [Compound 24, 1-Cyclohexyl-1,1-di-(4-hydroxyphenyl)methanol] | – | – | – | <10% | 20.0 ± 1.6 | 33.4 ± 2.2 | 44.7 ± 0.4 | – | – | –
NS(=O)(=O)Oc1cccc(C(=O)c2cccc(OS(N)(=O)=O)c2)c1 [Compound 28, Benzophenone-3,3′-O,O-bis-sulphamate] | – | – | – | 51.1 ± 3.7% | 73.6 ± 1.9 | 84.1 ± 1.9 | – | 75.3 ± 0.8% | 98.4 ± 0.3 | 99.9 ± 0.1
NS(=O)(=O)Oc1cccc(C(=O)c2cccc(O)c2)c1 [Compound 29, 3′-hydroxybenzophenone-3-O-sulphamate] | – | – | – | 18.8 ± 1.3% | 30.7 ± 3.4 | 43.7 ± 2.6 | 58.3 ± 0.1 | <10% | 30.7 ± 5.6 | 87.2 ± 1.8
